# Source: patent publication US20250263444A1, “vIRF3-Derived Peptide and Use Thereof for Preventing or Treating Cancer” (priority 2022, published 2025)
# Assays:
# ATP-citrate lyase (ACLY) = test: Immunoblotting with anti-acetyl-lysine antibody of LEC stable cell lines treated with ACLY inhibitor; format: cell-based; conditions: LEC lines pCDH, V5-vIRF3, V5-vIRF3(Δ250-280) treated with BMS303141
# Description: Acetyl-CoA is a crucial metabolite that provides acetyl groups for acetylation reaction of proteins including histone. To better understand the importance of acetyl-CoA upregulation by vIRF3 in LEC, first, it was confirmed whether vIRF3 may increase the overall acetylation level in LEC. To this end, cell lysates were analyzed by immunoblotting (IB) using an anti-acetyl-lysine antibody. […] Especially, cytosolic acetyl-CoA, which was involved in lysine acetylation of protein, regulating the activity, stability, or localization of many cell proteins is primarily generated by the translocation of citrate from the mitochondria to the cytoplasm via ATP-citrate lyase (ACLY). Therefore, three LEC stable cell lines encoding expression vectors of pCDH, V5-vIRF3, and V5-vIRF3(Δ250-280) were treated with an ACLY inhibitor BMS303141 and then analyzed by IB with an anti-acetyl-lysine antibody.
# tetrameric form of PKM2 = biological target: T1, tetrameric form of PKM2 (Homo sapiens, UniProt P14618); test: PKM2 cross-linking and gradient SDS-PAGE immunoblotting; format: cell-based; conditions: LECs expressing vIRF3; FIG. 8B
# T1 construct: endogenous in cells; host or cells: E6/E7-immortalised LECs stably expressing V5-vIRF3 by lentivirus (PKM2 endogenous, vIRF3 transduced)
# Description: 293T cells were infected with indicated combination of plasmids and harvested 48 hours after infection. The cells were lysed with a NP40 lysis buffer supplemented with a protease inhibitor (150 mM NaCl, 0.5% NP40, 50 mM pH 8.0 Tris-HCl) and treated with 0.1% glutaraldehyde for 4 minutes at room temperature. Thereafter, gradient SDS-PAGE was performed with NuPAGE 4-12% Bis-Tris gel (Invitrogen) and analyzed by immunoblotting.
# [1] = test system: recombinant KSHV-infected LECs; test: Xenograft model, subcutaneous peptide administration; format: in vivo, mice
# PKM2 [2] = biological target: T2, PKM2 (Homo sapiens, UniProt P14618); test: Binding of vIRF3-derived peptide fragments to PKM2 (GST-pull down / immunoprecipitation, FIG. 7); parameters: expressed in transfected cells
# From the text: A pCMV-HA-hPKM2 plasmid was provided by from the Miyagi Cancer Center Research Institute, Natori, Japan. In addition, a vIRF3 (Δ250-280) mutant was generated by sequentially deleting 10 amino acids from alanine 250 using a QuikChange XL site-directed mutagenesis kit (Agilent). Primer pairs used in vIRF3 deletion mutation were as follows: vIRF3(Δ250-260) forward 5′-[…]-3′ (SEQ ID NO: 8), vIRF3(Δ250-260) reverse 5′-[…]-3′ (SEQ ID NO: 9), vIRF3(Δ260-270) forward 5′-[…]-3′ (SEQ ID NO: 10), vIRF3(Δ260-270) reverse 5′-[…]-3′ (SEQ ID NO: 11), vIRF3(Δ270-280) forward 5′-[…]-3′ (SEQ ID NO: 12), and vIRF3(Δ270-280) reverse 5′-[…]-3′ (SEQ ID NO: 13). GST-tagged vIRF3 250-260, 260-270, and 270-280 were subcloned into a pEBG-GST vector with BamHI and NotI restriction sites using the following primers: vIRF3(250-260) forward 5′-[…] GGC-3′ (SEQ ID NO: 14), vIRF3(250-260) reverse 5′-[…] CG-3′ (SEQ ID NO: 15), vIRF3(260-270) forward 5′-GATCCGCCACCAT […]-3′ (SEQ ID NO: 16), vIRF3(260-270) reverse 5′-[…] G-3′ (SEQ ID NO: 17), vIRF3(270-280) forward 5′-[…] GC-3′ (SEQ ID NO: 18), and vIRF3 270-280 reverse 5′-[…] GGCG-3′ (SEQ ID NO: 19).
# The indicated cells were infected regardless of the presence or absence of combination of plasmids. […] Cell lysates were immunoprecipitated against indicated proteins and analyzed by immunoblotting according to methods known in the art.
# PKM2 [3] = biological target: T2, PKM2; test: Pyruvate kinase activity assay in LECs treated with TAT or TAT-VDP; format: cell-based; parameters: endogenous in cells; host or cells: E6/E7-immortalised LECs (LEC-V5-vIRF3 or LEC-vector); conditions: LEC-V5-vIRF3 cells; VDP fused to HIV-1 TAT; FIG. 8C
# Description: Pyruvate kinase activity assay was performed with a Pyruvate Kinase Assay Kit (Sigma Aldrich) according to manufacturer's instructions. Briefly, LECs expressing a pCDH vector, vIRF3, and vIRF3(Δ250-280), respectively were harvested and washed twice with 1×PBS. The cells were suspended in 50 μl of a pyruvate kinase assay buffer and incubated for 15 minutes. Cell debris was removed by centrifugation at 13,000 rpm for 15 minutes. The supernatant was transferred to a 96-well plate and added with a kinase assay mixture. Absorbance was measured at 570 nm wavelength using a Varioskan Lux microplate reader (Thermo scientific).
# LEC-V5-vIRF3 = test: Chorioallantoic membrane (CAM) invasion assay; format: in vivo, chick; conditions: 0.2 mg peptide at 24 and 48 hours after cell seeding; IHC; FIG. 8D
# Description: The chick fertilized eggs were incubated at 37.5° C. with 70% humidified atmosphere in a Rcom D-50 incubator (Autoelex). After embryonic day (ED) 5, a 1.5 cm square hole was opened on the eggshell and sealed with a sterile parafilm tape. Embryos were monitored by daily candling. On ED 10, sterile silicone rings were placed onto the CAM of the embryo and added with indicated cells, and then the cells were seeded. 0.2 mg of TAT (a control peptide containing only a TAT sequence of HIV-1 (synthesized by Bionics)) or TAT-VDP according to the present invention (vRIF3-derived aa250-260 peptide bound with a TAT sequence (synthesized by Bionics)) was treated at 24 and 48 hours after cell seeding. Approximately 1 cm^2 of CAM around the silicone ring was harvested and fixed with 4% paraformaldehyde at 4° C. for 24 hours. Thereafter, samples were treated for immunohistochemistry and Hematoxyling and Eosin (H&E) staining.
# T2 sequence (P14618 whole entry, the tested form may be a part): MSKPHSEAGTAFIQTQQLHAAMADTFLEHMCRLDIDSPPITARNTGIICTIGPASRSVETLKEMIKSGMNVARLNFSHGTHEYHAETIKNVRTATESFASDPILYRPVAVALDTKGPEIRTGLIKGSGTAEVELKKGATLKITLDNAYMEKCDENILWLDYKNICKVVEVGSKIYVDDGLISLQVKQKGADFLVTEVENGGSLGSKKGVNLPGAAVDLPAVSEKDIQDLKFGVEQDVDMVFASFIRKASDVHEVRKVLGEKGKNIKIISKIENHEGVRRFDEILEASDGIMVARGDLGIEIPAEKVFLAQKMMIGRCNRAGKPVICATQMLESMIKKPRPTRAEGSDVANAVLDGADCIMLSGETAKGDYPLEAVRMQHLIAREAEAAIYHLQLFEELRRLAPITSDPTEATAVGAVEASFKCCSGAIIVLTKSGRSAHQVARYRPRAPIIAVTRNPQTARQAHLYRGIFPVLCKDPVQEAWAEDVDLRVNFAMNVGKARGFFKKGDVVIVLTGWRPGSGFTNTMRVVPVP
# T1 sequence (P14618 2-531 limits assumed): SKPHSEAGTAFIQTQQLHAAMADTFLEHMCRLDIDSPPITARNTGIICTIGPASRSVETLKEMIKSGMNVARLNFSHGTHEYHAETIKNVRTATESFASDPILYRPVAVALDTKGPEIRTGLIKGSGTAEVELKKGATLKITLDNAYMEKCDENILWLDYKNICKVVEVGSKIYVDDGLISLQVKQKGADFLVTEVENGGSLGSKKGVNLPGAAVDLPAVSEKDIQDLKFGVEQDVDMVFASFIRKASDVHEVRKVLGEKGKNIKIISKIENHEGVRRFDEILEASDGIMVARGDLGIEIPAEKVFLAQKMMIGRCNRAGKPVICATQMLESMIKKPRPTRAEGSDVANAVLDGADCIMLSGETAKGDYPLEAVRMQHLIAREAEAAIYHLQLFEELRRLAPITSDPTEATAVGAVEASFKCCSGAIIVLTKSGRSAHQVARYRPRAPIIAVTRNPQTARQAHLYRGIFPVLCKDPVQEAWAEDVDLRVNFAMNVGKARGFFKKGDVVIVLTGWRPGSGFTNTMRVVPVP
compound,measurement,setting,value
COc1ccc(-c2ccccc2)cc1NS(=O)(=O)c1cc(Cl)cc(Cl)c1O [BMS303141],increase of total acetylation levels by vIRF3,ATP-citrate lyase (ACLY),the increase of total acetylation levels was not confirmed
TAT-VDP: vRIF3-derived aa250-260 peptide bound with a TAT sequence of HIV-1 for intracellular delivery (synthesized by Bionics) (RRRQRRKKRGYGEQGVHYMLACA),vIRF3-mediated tetrameric form of PKM2,tetrameric form of PKM2,sufficiently prevented
same,tumor formation,"[1]; 0.2 mg peptide twice per week for 30 days, subcutaneous, FIG. 8E",remarkably inhibited
vIRF3(260-270): fragment peptide of amino acids 260-270 of KSHV vIRF3 (SEQ ID NO: 4) (EMDMLMRAMCD),binding to PKM2,PKM2 [2],mutual-bound to PKM2
vIRF3(270-280): fragment peptide of amino acids 270-280 of KSHV vIRF3 (SEQ ID NO: 5) (DEDLFDLLGIP),binding to PKM2,PKM2 [2],mutual-bound to PKM2
"vIRF3-derived peptide: vIRF3-derived peptide of SEQ ID NO: 1, included within aa 250-280 of KSHV vIRF3 (ACALMYHVGQEMDMLMRAMCDEDLFDLLGIP)",PK activity upregulated by vIRF3 expression,PKM2 [3],significantly inhibited
same,invasion of LEC-V5-vIRF3 in CAM (invasive activity),LEC-V5-vIRF3,significantly inhibited
same,size and volume of tumor,"[1]; subcutaneous injection, animal model transplanted with LECs infected with KSHV",significantly reduced
